# Experimental data taken from publication PMC9738062, “Selectively Halogenated Flavonolignans—Preparation and Antibacterial Activity” (International Journal of Molecular Sciences, 2022).
# Tests used:
# [1] = Ferric reducing antioxidant power (FRAP); conditions: Fe2+ equivalents
# Procedure: (§1) To further elucidate how halogenation affects other properties of the flavonoids studied, their 2,2′-azino-bis-(3-ethylbenzothiazoline-6-sulfonic acid) cation (ABTS) and 1,1-diphenyl-2-picrylhydrazyl (DPPH) radical scavenging, the Folin–Ciocalteu reagent (FCR) reducing, the ferric-reducing antioxidant power (FRAP), and the anti-lipoperoxidation activities were evaluated by in vitro methods (Supplementary Information Tables S1 and S2).
# (§2) The antiradical activity was evaluated by the ability to scavenge ABTS and DPPH radicals. Reducing capacity was assessed by the ability to reduce the Folin–Ciocalteu reagent (FCR) and ferric ions (FRAP). The ability to inhibit lipid peroxidation of pooled male rat microsomal liver membranes induced by tert-butyl hydroperoxide was also evaluated and the results were expressed as IC50 values.
# [2] = test system: Vibrio campbellii BAA 1118 (AI-1); test: microbe, parasite or virus in culture; assay type: cell-based; conditions: for EC50: Vibrio campbellii, BAA1118, 16 h, read-out: EC50 (concentration that halved the communication); for SI (selectivity index): ratio IC50 (viability) / EC50 (communication), BAA 1118
# Outline: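 Mutant V. campbellii strains responding only to AI-1 (BAA-1118) or AI-2 (BAA-1119), seeded at 5 × 10^5 CFU/mL in Autoinducer Bioassay medium (potassium phosphate pH 7.0); compounds at final 0.2–200 µM.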
# [3] = test system: Vibrio campbellii BAA 1119 (AI-2); test: Viability of the quorum-sensing reporter culture (resazurin assay), AI-2 strain; assay type: cell-based; conditions: BAA1119, V. campbellii BAA 1119, resazurin assay, read-out: IC50 (concentration that halved the viability)
# Source text: Commercially available strains of Vibrio campbellii were used to evaluate the ability of flavonoids and their derivatives to inhibit bacterial quorum sensing. V. campbellii uses two types of autoinducing molecules for its communication—N-acyl-homoserine lactones (Autoinducer I, AI-1, strain BAA 1118) and furanosyl borate diester (Autoinducer II, AI-2, strain BAA 1119). AI-1-based communication is mainly used by Gram-negative bacteria, while AI-2-based communication is found in both Gram-negative and Gram-positive bacteria. The mutant strains of V. campbellii BA1118 and BA1119 respond only to AI-1 or AI-2, respectively, and the response to the respective AI concentration is measured as luminescence. The higher the AI concentration, the higher the luminescence signal. The ability to inhibit the communication was expressed as the selectivity index (SI), calculated as the ratio between the concentration that halved the viability (IC50) and the concentration that halved the communication (EC50) of the respective V. campbellii strains. […] The antimicrobial activity of quorum-sensing inhibitors is undesirable because it creates a selection pressure and can lead to the development of resistance.
# The inhibition of bacterial extracellular communication was measured using Vibrio campbellii strains BAA-1118 and BAA-1119. The experiment was performed according to the methods of Szemerédi et al.. Briefly, 5 × 10^5 CFU/mL (colony-forming units per milliliter) were seeded in an Autoinducer Bioassay medium (NaCl 17.5 g/L, MgSO4 12.3 g/L, Casamino acids 2 g/L, 10 mL of 1 M potassium phosphate pH 7.0, 10 mL of 0.1 M L-arginine, and 10 mL of glycerol in 970 mL of deionized water) in a 96-well plate. Immediately, the tested compounds were added at the final concentration of 0.2–200 µM and luminescence was recorded for 16 h by a SpectraMax i3x microplate reader set at 30 °C, an integration time of 10,000 ms, and shaking for 60 s before measurement. […] The selectivity index was calculated as the […]. The EC50 and IC50 were calculated using GraphPad Prism software version 5.00 for Windows with a nonlinear regression curve fit.
# [4] = test system: lipopolysaccharide-stimulated macrophages (RAW 264.7); test: Inhibition of nitric oxide production (Griess reagent); assay type: cell-based, murine; conditions: Mus musculus, RAW264.7; LPS 100 ng/mL, 24 h; highest tested concentration 100 µM; read-out: NO Production IC50
# Procedure: (§3) The anti-inflammatory activity of the tested flavonolignans was determined as the ability to reduce nitric oxide production by murine macrophages (RAW 264.7) stimulated by bacterial lipopolysaccharides, as previously described. […] For the experiment, 1 × 10^6 cells/mL was seeded into the 96-well plate (100 µL/well). […] After 24 h, the medium was mixed with Griess reagent (0.04 g/mL), prepared freshly in deionized water at the ratio of 1:1. The absorbance was measured after 15 min at 540 nm by the SpectraMax i3x microplate reader. Cell viability was determined by resazurin assay.
# [5] = Folin-Ciocalteu reagent reduction; conditions: gallic acid equivalents
# Procedure: as §1, §2
# [6] = test system: murine macrophages (RAW 264.7); test: Cell viability in the nitric oxide assay (resazurin assay); assay type: cell-based; conditions: RAW 264.7, nitric oxide assay
# Procedure: as §3
SMILES,FRAP [Fe2+eq] [1] [Fe2+eq],EC50 [2] [µM],SI (selectivity index) [2],IC50 [3] [µM],IC50 [4] [µM],FCR [GAE] [5] [GAE],Concentration above which the cell viability decreased [6] [µM]
"O=c1c(O)c(-c2ccc(O)c(O)c2)oc2c(Br)c(O)cc(O)c12 [compound 9, 8-bromoquercetin]",2.44 ± 0.06,25.6 ± 0.5,1.08 ± 0.04,1.1 ± 0.1,> 100,2.01 ± 0.06,–
"O=c1c(O)c(-c2ccc(O)c(O)c2)oc2c(Br)c(O)c(Br)c(O)c12 [compound 10, 6,8-dibromoquercetin]",3.31 ± 0.14,7.3 ± 0.4,1.9 ± 0.2,3.5 ± 0.1,40.6 ± 2.6,1.70 ± 0.02,–
"COc1cc([C@H]2Oc3cc([C@H]4Oc5cc(O)c(Br)c(O)c5C(=O)[C@@H]4O)ccc3O[C@@H]2CO)ccc1O [compound 11, 6-Bromosilybin A]",0.072 ± 0.002,24.4 ± 0.7,2.1 ± 0.1,51.5 ± 0.6,40 ± 3.4,1.06 ± 0.04,–
"COc1cc([C@H]2Oc3cc([C@H]4Oc5c(Br)c(O)c(Br)c(O)c5C(=O)[C@@H]4O)ccc3O[C@@H]2CO)ccc1O [compound 12, 6,8-dibromosilybin A]",0.084 ± 0.004,12.2 ± 0.4,1.9 ± 0.2,80.5 ± 4.8,73.9 ± 5.8,0.85 ± 0.03,–
"COc1cc([C@@H]2Oc3cc([C@H]4Oc5cc(O)c(Br)c(O)c5C(=O)[C@@H]4O)ccc3O[C@H]2CO)ccc1O [compound 13, 6-Bromosilybin B]",0.063 ± 0.001,14.5 ± 0.5,1.11 ± 0.04,52.7 ± 0.6,37 ± 2.4,1.17 ± 0.04,–
"COc1cc([C@@H]2Oc3cc([C@H]4Oc5c(Br)c(O)c(Br)c(O)c5C(=O)[C@@H]4O)ccc3O[C@H]2CO)ccc1O [compound 14, 6,8-dibromosilybin B]",0.081 ± 0.004,14.7 ± 0.7,1.1 ± 0.1,60.2 ± 3.4,90.4 ± 4.6,1.10 ± 0.05,–
"COc1cc(C2Oc3cc(-c4oc5c(Br)c(O)cc(O)c5c(=O)c4O)ccc3OC2CO)ccc1O (centres unmarked) [compound 16, 8-bromo-2,3-dehydrosilybin AB]",0.19 ± 0.01,> 200,–,87 ± 2.5,> 25,1.56 ± 0.03,> 25
"COc1cc([C@@H]2Oc3c(O)cc(-c4oc5c(Br)c(O)cc(O)c5c(=O)c4O)cc3[C@H]2CO)ccc1O [compound 18, 8-Bromo-2,3-dehydrosilychristin A]",0.90,29.4 ± 0.7,2.7 ± 0.1,23 ± 0.2,32.6 ± 1.8,2.22,–
"COc1cc([C@H]2Oc3cc([C@H]4Oc5c(Br)c(O)c(Br)c(O)c5C(=O)[C@@H]4O)ccc3O[C@@H]2CO)cc(Br)c1O [compound 21, 6,8,21-tribromosilybin A]",0.079 ± 0.002,> 200,–,> 200,70.4 ± 1.7,0.99 ± 0.02,–
"COc1cc([C@@H]2Oc3cc([C@H]4Oc5c(Br)c(O)c(Br)c(O)c5C(=O)[C@@H]4O)ccc3O[C@H]2CO)cc(Br)c1O [compound 22, 6,8,21-tribromosilybin B]",0.062 ± 0.002,4.3 ± 0.3,1.7 ± 0.1,34.4 ± 1.8,> 100,1.01 ± 0.04,–
